Measured values reported in the NIST ThermoML archive (doi:10.1016/j.tca.2013.09.032).

Assay: molar heat capacity at constant pressure
Details: 101.33 kPa, Crystal, Vacuum adiabatic calorimetry

Cc1cc2nc3c(=O)[nH]c(=O)nc-3n(C[C@H](O)[C@H](O)[C@H](O)CO)c2cc1C [riboflavin]
Details	molar heat capacity at constant pressure [J/K/mol]
1 K	0.0523
2 K	0.209
3 K	0.47
4 K	0.836
5 K	1.31
6 K	1.88
6.75 K	2.55
7 K	2.65
7.32 K	2.83
8 K	3.25
8.41 K	3.45
8.94 K	4.08
9 K	4.08
9.34 K	4.48
9.68 K	4.81
10 K	5.1
10.15 K	5.25
10.36 K	5.42
10.98 K	6.23
11.56 K	7.05
11.98 K	7.68
13.16 K	9.25
15 K	12
15.03 K	12.22
16.92 K	15.24
18.77 K	18.25
20 K	20.35
20.65 K	21.38
22.79 K	25.35
24.95 K	29.29
25 K	29.5
27.13 K	33.81
29.37 K	38.36
30 K	39.49
31.61 K	42.49
33.91 K	47.31
35 K	49.35
36.25 K	51.78
38.52 K	56.45
40 K	59.26
40.96 K	60.98
43.38 K	65.91
45 K	68.91
45.72 K	70.28
48.12 K	74.84
50 K	78.34
50.55 K	79.52
52.99 K	83.98
55.45 K	88.71
57.93 K	93.42
60 K	97.31
60.48 K	98.18
62.91 K	102.6
65.4 K	106.9
67.89 K	110.9
70 K	114.4
70.37 K	115.1
72.85 K	119.2
75.32 K	123.3
77.79 K	128.2
80 K	132
80.34 K	132.4
82.75 K	137.1
83.48 K	138.3
85.22 K	141.4
86.72 K	144.2
88.86 K	147.9
89.48 K	148.9
90 K	149.6
92.71 K	153.8
95.7 K	158.4
98.7 K	162.9
100 K	165.2
101.67 K	167.8
104.65 K	172.4
107.64 K	177.1
110 K	180.4
110.63 K	181.6
113.62 K	185.8
116.63 K	190.1
119.63 K	194.3
120 K	195
122.64 K	198.5
125.66 K	202.7
128.69 K	207.3
130 K	209.2
131.7 K	211.6
134.72 K	215.9
137.75 K	220.3
140 K	223.3
140.77 K	224.6
143.8 K	229
146.83 K	233
149.86 K	237.2
150 K	237.5
152.9 K	241.7
155.94 K	246
158.98 K	250.1
160 K	251.7
162.02 K	254.2
165.06 K	258.6
168.1 K	263
170 K	265.7
171.14 K	267.3
174.19 K	271.6
177.26 K	276
180 K	279.4
180.3 K	279.9
183.34 K	283.9
186.38 K	288.1
189.42 K	291.9
190 K	293
192.46 K	296.2
195.5 K	300.5
198.54 K	305
200 K	306.7
201.58 K	308.7
204.61 K	313
207.64 K	317.5
210 K	320.5
210.68 K	321.4
213.72 K	325.8
216.77 K	330
219.81 K	334
220 K	334.7
222.86 K	338.3
225.93 K	342.3
228.98 K	346.6
230 K	348.2
232.02 K	350.4
235.06 K	355
238.11 K	359.4
240 K	361.5
241.15 K	363.5
244.2 K	367.7
247.25 K	371.5
250 K	375.1
250.29 K	375.6
253.34 K	379.8
256.38 K	383.9
259.42 K	388.4
260 K	389.1
262.46 K	392.5
265.5 K	396.6
268.54 K	400.6
270 K	403
271.58 K	404.8
273.15 K	407.4
274.65 K	409.2
277.69 K	413.5
280 K	416.6
280.72 K	417.4
283.75 K	421.5
286.78 K	425.5
289.8 K	429.8
290 K	429.9
292.82 K	434
295.84 K	438.2
298.15 K	441.1
298.86 K	442.2
302.37 K	447.3
306.36 K	453.1
310 K	458.6
310.36 K	459.1
314.34 K	464.5
318.32 K	470
320 K	472.1
322 K	474.1
322.29 K	474.7
